This is an account of results in patent US12202805B2, “Process for preparing (5S)-{[2-(4-carboxyphenyl)ethyl] |2-(2-{|3-chloro-4'-(trifluoromethyl)biphenyl-4-yl]methoxy}phenyl)ethyl]aminol-5,6,7,8-tetrahydroquinoline-2-carboxylic acid and its crystalline forms for use as pharmaceutically active compound” (Bayer Aktiengesellschaft, priority 2021, dated 2025).

The subject of series [1] is thromboxane A2 challenged PAH-minipig. Briefly: Haemodynamics in the anesthetized thromboxane challenged minipig, inhaled nebulized solution (PAP, BP). The format is in vivo, Göttingen Minipigs. How it is done:
E-1 Haemodynamics in the Anesthetized Thromboxane Challenged Minipig
Lung Selectivity and Duration of Action
(§1) Healthy Göttingen Minipigs® Ellegaard (Ellegaard, Denmark) of both sexes and having a weight of 2-6 kg were used. The animals were sedated by i.m. administration of about 25 mg/kg ketamine and about 10 mg/kg azaperone. Anaesthesia was initiated by i.v. administration of about 2 mg/kg ketamine and about 0.3 mg/kg midazolam. Maintenance of anaesthesia was by i.v. administration of about 7.5-30 mg/kg/h ketamine and about 1-4 mg/kg/h midazolam (rate of infusion 1-4 ml/kg/h) and about 150 μg/kg/h pancuronium bromide (for example Pancuronium-Actavis). After intubation, the animals were ventilated by the ventilator at a constant respiratory volume (10-12 ml/kg, 35 breaths/min; Avea®, Viasys Healthcare, USA, or Engström Carestation, GE Healthcare, Freiburg, Germany) such that an end-tidal CO2 concentration of about 5% was achieved. Ventilation was performed with room air, enriched with about 40% oxygen (normoxia). For the measurement of the haemodynamic parameters such as pulmonary arterial pressure (PAP), blood pressure (BP) and heart rate (HR), catheters were inserted into the carotid artery to measure the blood pressure, and a Swan-Ganz® catheter was introduced in a flow-directed manner via the jugular vein into the pulmonary artery. The haemodynamic signals were recorded and evaluated by means of pressure transducers (Combitransducer, B. Braun, Melsungen, Germany)/amplifiers and Ponemah® as data acquisition software.
After the instruments have been placed into the animals, continuous infusion of a thromboxane A2 analog was initiated to increase the pulmonary arterial pressure. About 0.3-0.75 μg/kg/min of 9,11-didesoxy-9α,11α-epoxymethanoprostaglandine F2α (U-44069; Sigma, cat. no. D0400, or Cayman Chemical Company, cat. no. 16440), dissolved in physiological saline, were infused to achieve an increase of the mean pulmonary arterial pressure to values of over 25 mmHg. 30 minutes after the start of the infusion, a plateau was reached, and the experiment was started.
The test substances were administered as i.v. infusion or by inhalation. For the preparation of the solution for inhalation, the following procedure was adopted: For an animal having a weight of 4 kg, to prepare the stock solution (300 μg/kg), 1.2 mg of the test compound were weighed out and dissolved in a total volume of 3 ml (1% DMSO, 99% 0.2% strength citric acid solution, 1 n aqueous sodium hydroxide solution to adjust the pH to 8). The solution was then diluted to the concentration employed using 0.2% strength citric acid which had been adjusted to pH 8 beforehand with aqueous sodium hydroxide solution. In each test, 3 ml of the solution of test compound per 4 kg animal were nebulized in the inhalation arm of the respiratory circuit using the Aeroneb® Pro nebulizer system. The mean nebulization time was about 7 min from the start of the nebulization.
With respect to a prediction of the duration of action for human studies comparative example 11 was compared in the PAH minipig model after inhaled application to Ventavis® (=Iloprost, 10 μg/kg nominal dose), which we used as a clinical reference. […] Therefore, the duration of action is more than 6 times longer compared to Ventavis in this preclinical animal model.

Series [2] shares this test system. Briefly: Haemodynamics in the anesthetized thromboxane challenged minipig, intratracheal dry powder (PAP, BP). The format is in vivo, Göttingen Minipigs. How it is done:
as §1
As reference pure Lactose vehicle was applied in the beginning of each experiment.

With `O=C(O)c1ccc(CCN(CCc2ccccc2OCc2ccc(-c3ccc(C(F)(F)F)cc3)cc2Cl)[C@H]2CCCc3nc(C(=O)O)ccc32)cc1` [comparative example 11, (5S)-5-{[2-(4-carboxyphenyl)ethyl][2-(2-{[3-chloro-4′-(trifluoromethyl)[biphenyl]-4-yl]methoxy}phenyl)ethyl]amino}-5,6,7,8-tetrahydroquinoline-2-carboxylic acid], in series [1] (inhaled, all doses (10, 30, 100 μg/kg nominal dose), 240 min observation interval), the “duration of dose dependent efficacy (PAP)” value is ≥ 240 min. Besides, the “time of maximum effect after start inhalation” value in series [1] (nebulized liquid formulations) is reported as “about 90 min”. For the same molecule, the “duration of action, times longer compared to Ventavis” value in series [1] (preclinical animal model) was “more than 6 times”. In addition, in series [2] (dry powder i.t., lower doses not applicable), the MED is ≤ 7.5 µg/kg.
Consider `O=C(O)c1ccc(CCN(CCc2ccccc2OCc2ccc(-c3ccc(C(F)(F)F)cc3)cc2Cl)[C@H]2CCCc3nc(C(=O)O)ccc32)cc1` [example 2, (5S)—{[2-(4-Carboxyphenyl)ethyl][2-(2-{[3-chloro-4′-(trifluoromethyl)biphenyl-4-yl]methoxy}phenyl)-ethyl]amino}-5,6,7,8-tetrahydroquinoline-2-carboxylic acid as Monohydrate II], for which, in series [1] (nebulized solution, inhaled), the “minimal effective nominal dose (5% reduction in PAP)” value turned out to be 3 µg/kg. Moreover, the systemic blood pressure result in series [2] (375 μg/kg i.t., within the last hour of the observation interval) is “slightly affected”. In series [2] (micronized hydrates, 1.5 mg/4 kg (=375 μg/kg) i.t.), the “efficacy with regard to PAP reduction as well as systemic BP reduction” value was “comparable efficacy”. Also, the “BP, % changes vs. prevalues” in series [2] (time 80 min, 375 μg/kg i.t.) is on record as 100.0%; in series [2] (time 130 min, 375 μg/kg i.t.), 97.0%; in series [2] (time 140 min, 375 μg/kg i.t.), 97.0%; in series [2] (time 200 min, 375 μg/kg i.t.) it was 97.0%.
